Data: patent US12473295B2, “Substituted straight chain spiro derivatives” (Janssen Pharmaceutica NV, priority 2019, dated 2025)
Structures can show the parent of a compound that is named as a salt.

What was measured:
OCI-AML3 cells = test: Proliferation assay (spheroid growth, 8 days), OCI-AML3; type: cell-based, human; settings: Homo sapiens, OCI-AML-3, […], OCI-AML3, 8 days
In short: (§1)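 200 MOLM14 (MLL-AF9), 200 OCI-AML3 (NPM1c) or 300 KO-52 (MLL wildtype) cells were grown as spheroids in ultra-low attachment wells with compound, 0.3% DMSO, for 8 days at 37 °C. Confluence was imaged on day 8, normalized to DMSO and top-dose reference compound. IC50 came from a variable-slope fit constrained 0–100%.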

KO-52 cells = test: Proliferation assay (spheroid growth, 8 days), KO-52 control cell line; type: cell-based, human; settings: Homo sapiens, […], read-out: spheroid assay_OneTime KO-52 IC50
In short: as §1

MEIS1 mRNA = MEIS1 mRNA expression assay (Quantigene Singleplex) in MOLM14 cells; type: cell-based, human; settings: Homo sapiens, MOLM-14, 48 h, 48 hours incubation;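 also: MEIS1 transcript levels read by probe hybridization and normalized to RPL28 mRNA, with IC50 fitted to fold changes across a rising compound concentration series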
[1] = biological target: menin/MLL (terbium chelate-labeled menin, FITC-MBM1 peptide) (Homo sapiens (Human), UniProt O00255); test: Menin/MLL homogenous time-resolved fluorescence (HTRF) assay; type: binding; settings: HTRF-30 min incubation IC50, 30 min incubation;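 also: IC50 from percent inhibition of HTRF signal, normalized between wells without competitor and wells with a saturating competitor that displaces FITC-MBM1 from His-tagged menin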
MOLM14 cells = test: Proliferation assay (spheroid growth, 8 days), MOLM14; type: cell-based, human; settings: Homo sapiens, MOLM-14, […], MOLM14, 8 days; read-out: spheroid assay_OneTime MOLM14 IC50;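 also: spheroid size read as confluence by live-cell imaging, compounds added at a range of concentrations with 0.3% DMSO, DMSO-treated wells = 0%, highest reference dose = low control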
hERG = hERG (Homo sapiens (Human), UniProt Q12809); test: Effect on membrane potassium current IKr in hERG-transfected HEK293 cells, Protocol 2 (SyncroPatch 384PE); type: cell-based; settings: Protocol 2, hERG-transfected HEK293 cells
Procedure: 8) Effect on the Membrane Potassium Current IKr in hERG Transfected Cell Lines
The compound, vehicle control and positive control were tested on hERG-transfected HEK293 cells. A human embryonic kidney cell line (HEK293) with a stable transfection of hERG (Zhou Z et al. Biophysical Journal 1998. 74, 230-241; McDonald T. V. et al, Nature 1997. 388, 289-292) was used (University of Wisconsin, Madison, USA). The cells were kept in culture in MEM (Minimum Essential Medium, Gibco) which was supplemented with (amounts indicated added to 500 ml MEM): 5 ml L-Glutamine-Penicillin-Streptomycin (Sigma), 50 ml Fetal Bovine serum (Bio-Whittaker), 5 ml Non-essential Amino Acids 100× (Gibco), 5 ml sodium pyruvate 100 mM (Gibco) and 4 ml geneticin 50 mg/ml (Gibco) using T175 flasks. The cells were incubated at 37° C. in 5% CO2 atmosphere (in air).
Cell Harvesting for Assay
Cells were harvested as described below using Accumax™ (Sigma) as the dissociating reagent. Cells were then resuspended in a mixture of 33% DMEM/F12 (Dulbecco's Modified Eagle Medium/Nutrient Mixture F-12—Sigma) media/67% extracellular physiological solution.
The flasks were washed twice carefully with ˜5-10 ml phosphate buffered saline (PBS) (Gibco™) containing 2 mM EDTA (Ethylenediaminetetraacetic acid) (Sigma). The cells were dissociated using ˜3 ml of Accumax™ (cell detachment solution) and incubated for ˜5 to 10 min. at 37° C. Cold external physiological solution (2-5 ml) was added and the flasks are incubated at ˜4° C. for 5-10 min. Then, the cell suspension in each flask was gently dissociated with a 5 ml pipette. The cell suspension was transferred to a low binding petri-dish (˜[…]). Each flask was washed with ˜additional 5 ml cold external physiological solution and this solution was also added to the petri-dish. The petri-dish was then incubated for another 5 to 10 minutes at ˜4° C. After another gentle dissociation of the cell suspension in the petri dish, the cells were transferred to a reservoir kept on an orbital shaker at 200 rpm at 16° C. Before experiments were performed, the cells recovered for ˜20 min.
A 10 mM solution of the compound was used and plated in a 384 well plate. Aliquots of the stock solutions are diluted with the recording solution (see section 3) using automated liquid handling (Biomek FXP; final DMSO concentration: 0.03 to 0.3%). A standard range of screening concentrations was used ranging from 1 μM to 30 μM.
A positive control (E-4031) was included within each run to evaluate the sensitivity of the assay.
External and Intracellular Solutions Used in the Experiments
In the table below the composition of the intracellular and external buffer solutions is shown in [mM] (“NMDG” means N-methyl-D-glucamine)
The whole cell patch clamp technique on transfected cells allows the study of ion-channels with no—or limited interference from other ion-channels. The effects of the compounds on the hERG current were studied with an automated planar patch clamp system, SyncroPatch 384PE (Obergrussberger et al, Journal of Laboratory Automation 2016. 21 (6). 779-793). All cells were recorded in the whole cell mode of the patch clamp technique. The module is incorporated in a liquid handling pipetting robot system, Biomek FXP, for application of cells and compounds, vehicle control and positive control.
The different concentrations of the compounds were applied in two cumulatively increasing concentrations for the compounds (1 μM and 10 μM, and 3 μM and 30 μM, respectively). The hERG current was determined as the maximal tail current at −30 mV and percent inhibition upon compound or vehicle and positive control addition was reported.
After cells are caught onto the individual holes of the recording chips using the chip fill solution, the seal is increased with the seal enhancer solution (increased [Ca^2+]; then the cells were washed twice with recording solution before using a pressure protocol to go into the whole cell mode. […]

Chain of menin/MLL (terbium chelate-labeled menin, FITC-MBM1 peptide) (O00255 other isoform, or with tags, fused parts or gaps): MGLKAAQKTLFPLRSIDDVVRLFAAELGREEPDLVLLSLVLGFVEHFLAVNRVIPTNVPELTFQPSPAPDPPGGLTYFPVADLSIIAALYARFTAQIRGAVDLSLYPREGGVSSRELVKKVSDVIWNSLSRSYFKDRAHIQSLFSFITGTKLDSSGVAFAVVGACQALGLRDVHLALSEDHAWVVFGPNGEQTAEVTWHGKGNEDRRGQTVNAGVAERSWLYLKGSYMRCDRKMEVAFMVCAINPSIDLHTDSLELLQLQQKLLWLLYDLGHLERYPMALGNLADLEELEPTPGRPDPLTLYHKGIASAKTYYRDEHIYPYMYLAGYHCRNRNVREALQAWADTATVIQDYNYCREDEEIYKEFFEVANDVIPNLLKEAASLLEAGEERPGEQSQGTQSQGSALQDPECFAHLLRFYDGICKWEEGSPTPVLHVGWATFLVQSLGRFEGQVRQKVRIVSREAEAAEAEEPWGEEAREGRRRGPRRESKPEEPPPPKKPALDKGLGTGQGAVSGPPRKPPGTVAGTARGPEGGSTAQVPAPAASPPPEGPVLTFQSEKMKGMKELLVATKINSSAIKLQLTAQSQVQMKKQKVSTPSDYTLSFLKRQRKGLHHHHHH
Chain of hERG (Q12809 whole entry): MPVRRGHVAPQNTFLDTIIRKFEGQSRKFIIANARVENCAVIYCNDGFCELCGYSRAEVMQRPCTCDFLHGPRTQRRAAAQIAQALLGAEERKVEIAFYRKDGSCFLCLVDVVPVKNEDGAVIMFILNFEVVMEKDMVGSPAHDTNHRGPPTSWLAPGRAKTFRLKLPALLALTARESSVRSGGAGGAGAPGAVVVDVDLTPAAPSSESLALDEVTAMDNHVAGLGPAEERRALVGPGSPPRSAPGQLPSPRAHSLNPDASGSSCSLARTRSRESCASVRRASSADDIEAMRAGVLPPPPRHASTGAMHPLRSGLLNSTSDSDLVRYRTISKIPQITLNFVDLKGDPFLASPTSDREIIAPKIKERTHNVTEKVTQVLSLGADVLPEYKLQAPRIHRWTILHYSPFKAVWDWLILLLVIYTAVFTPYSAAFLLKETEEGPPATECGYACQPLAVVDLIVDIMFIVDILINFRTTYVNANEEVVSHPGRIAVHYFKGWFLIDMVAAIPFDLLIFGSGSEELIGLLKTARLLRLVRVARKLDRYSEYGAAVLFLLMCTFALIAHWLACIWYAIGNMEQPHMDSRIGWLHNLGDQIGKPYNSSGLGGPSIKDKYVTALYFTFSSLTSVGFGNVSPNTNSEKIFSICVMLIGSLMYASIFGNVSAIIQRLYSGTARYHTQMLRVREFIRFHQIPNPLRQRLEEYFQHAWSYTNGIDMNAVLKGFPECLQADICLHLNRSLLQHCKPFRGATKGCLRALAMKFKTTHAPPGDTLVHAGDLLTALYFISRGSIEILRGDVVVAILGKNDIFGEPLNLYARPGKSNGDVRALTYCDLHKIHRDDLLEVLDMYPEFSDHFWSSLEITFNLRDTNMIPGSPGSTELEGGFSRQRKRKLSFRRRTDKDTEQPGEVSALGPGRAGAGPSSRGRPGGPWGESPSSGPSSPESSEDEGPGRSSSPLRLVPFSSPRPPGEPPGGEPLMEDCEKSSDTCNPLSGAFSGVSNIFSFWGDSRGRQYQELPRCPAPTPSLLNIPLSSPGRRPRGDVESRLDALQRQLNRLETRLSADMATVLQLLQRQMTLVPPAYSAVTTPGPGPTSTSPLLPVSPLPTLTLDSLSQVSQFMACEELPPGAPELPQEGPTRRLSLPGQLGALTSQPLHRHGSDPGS

SMILES | IC50 (OCI-AML3 cells) [nM] | IC50 (KO-52 cells) [nM] | IC50 (MEIS1 mRNA) [nM] | IC50 [1] [nM] | IC50 (MOLM14 cells) [nM] | IC50 (hERG) [nM]
CCN(C)CCC[C@H](C(C)C)N1CC2(CCN(c3ncnnc3Oc3ccc(F)cc3C(=O)N(CC)C(C)C)C2)C1 (single isomer, unassigned) [Compound 132, (*R)—N-ethyl-2-((5-(2-(6-(ethyl(methyl)amino)-2-methylhexan-3-yl)-2,6-diazaspiro[3.4]octan-6-yl)-1,2,4-triazin-6-yl)oxy)-5-fluoro-N-isopropylbenzamide fumarate] | 190 | 10400 | 15 | 0.11 | 33 | > 30200
CCN(C(=O)c1cc(F)ccc1Oc1nncnc1N1CCC2(C1)CN([C@H](CCN(C)C)C(C)C)C2)C(C)C (single isomer, unassigned) [Compound 223, (*R)-2-((5-(2-(1-(dimethylamino)-4-methylpentan-3-yl)-2,6-diazaspiro[3.4]octan-6-yl)-1,2,4-triazin-6-yl)oxy)-N-ethyl-5-fluoro-N-isopropylbenzamide fumarate] | 990 | > 15000 | 200 | 0.4 | 180 | > 30200
CC(C)[C@H](CCCN(C)CCC(=O)N(C)C)N1CC2(CCN(c3ncnnc3Oc3ccc(F)cc3C(=O)N(C(C)C)C(C)C)C2)C1 (single isomer, unassigned) [Compound 146, (*S)-2-((5-(2-(6-((3-(dimethylamino)-3-oxopropyl)(methyl)amino)-2-methylhexan-3-yl)-2,6-diazaspiro[3.4]octan-6-yl)-1,2,4-triazin-6-yl)oxy)-5-fluoro-N,N-diisopropylbenzamide fumarate] | 1790 | > 15000 | 440 | 0.081 | 320 | > 30200
CCN(C(=O)c1cc(F)ccc1Oc1nncnc1N1CCC2(C1)CN([C@H](CCCN(C)CCN(C)C(C)=O)C(C)C)C2)C(C)C [Compound 148, (R)-N-ethyl-5-fluoro-N-isopropyl-2-((5-(2-(2-methyl-6-(methyl(2-(N-methylacetamido)ethyl)amino)hexan-3-yl)-2,6-diazaspiro[3.4]octan-6-yl)-1,2,4-triazin-6-yl)oxy)benzamide fumarate] | 340 | > 15000 | 60 | 0.35 | 41 | 12300
CCN(C(=O)c1cc(F)ccc1Oc1nncnc1N1CCC2(C1)CN([C@H](CCNCCOC)C(C)C)C2)C(C)C (single isomer, unassigned) [Compound 227, (*R)—N-ethyl-5-fluoro-N-isopropyl-2-((5(2-(1-((2-methoxyethyl)amino)-4-methylpentan-3-yl)-2,6-diazaspiro[3.4]octan-6-yl)-1,2,4-triazin-6-yl)oxy)benzamide fumarate] | 130 | > 15000 | 76 | 0.15 | 46 | > 30200
CCN(C(=O)c1cc(F)ccc1Oc1nncnc1N1CCC2(C1)CN([C@H](C[C@H](C)CN(C)CCOC)C(C)C)C2)C(C)C (single isomer, unassigned) [Compound 242] | 1070 | > 15000 | 230 | 0.26 | 170 | > 30200
